Results from ChEMBL document CHEMBL1134899, “Non-steroidal pregnancy-terminating agents: design, synthesis and structure-activity relationships of 2-aryl-1,2,4-triazolo[1,5-a]pyridine” (2002).
Activity calls are given as the source filed them. The calls are words filed in the database; no cut-off is given here.

Legend:
[1] = species: Rattus norvegicus; assay: Compound was tested for in vitro activity of luteolysis on corpora lutea from pseudopregnant rats; inactive; type: functional
[2] = species: Rattus norvegicus; assay: Compound was tested for in vitro activity of luteolysis on corpora lutea from pseudopregnant rats; type: functional; conditions: read-out: ED50 (the source's name)

SMILES | ED50 [1] | EC50 [2]
Cc1cccc2nc(-c3ccccc3)nn12 | inactive | –
Cc1cccc2nc(-c3ccc4c(c3)OCO4)nn12 | – | 65 µM
